Patent US20120065187A1 (ALCON RESEARCH, LTD, priority 2008, published 2012)

Key:
human H1 = target: T1, human H1 (Homo sapiens, UniProt P35367); experiment: In vitro histamine receptor cell-based assay (aequorin bioluminescence), H1 antagonism; settings: CHO-K1 cells expressing human H1 and aequorin; histamine at EC80; read-out: H1 Antagonist EC50
T1 construct: host or cells: CHO-K1
Protocol: The cell-based assays utilize an aequorin dependent bioluminescence signal. Doubly-transfected, stable CHO-K1 cell lines expressing human H1 or H4, mitochondrion-targeted aequorin, and (H4 only) human G protein Gα16 are obtained from Perkin-Elmer. Cells are maintained in F12 (Ham's) growth medium, containing 10% (vol./vol.) fetal bovine serum, penicillin (100 IU/mL), streptomycin (0.1 mg/mL), zeocin (0.25 mg/mL) and geneticin (0.40 mg/mL). Cell media components are from Invitrogen, Inc. One day prior to assay, the growth medium is replaced with the same, excluding zeocin and geneticin.
For assay preparation, growth medium is aspirated, and cells are rinsed with calcium-free, magnesium-free phosphate-buffered saline, followed by two to three minute incubation in Versene (Invitrogen, Inc.) at 37° C. Assay medium (DMEM:F12 [50:50], phenol-red free, containing 1 mg/mL protease-free bovine serum albumin) is added to collect the released cells, which are then centrifuged. The cell pellet is re-suspended in assay medium, centrifuged once more, and re-suspended in assay medium to a final density of 5×10^6 cells/mL. Coelenterazine-h dye (500 μM in ethanol) is added to a final concentration of 5 μM, and mixed immediately. The conical tube containing the cells is then wrapped with foil to protect the light-sensitive dye. The cells are incubated for four hours further at room temperature (approximately 21° C.) with end-over-end rotation to keep them in suspension.
Just before assay, the dye-loaded cells are diluted to 0.75×10^6 cells/mL (H1 receptor) or 1.5×10^6 cells/mL (H4 receptor) with additional assay medium. Cells are dispensed to 1536 well micro-titer plates at 3 μL/well. To assay receptor antagonism, 60 nl of 100× concentration test compounds in 100% dimethyl sulfoxide (DMSO) are dispensed to the wells, one compound per well, by passive pin transfer, and the plates are incubated for 15 minutes at room temperature. Assay plates are then transferred to a Lumilux bioluminescence plate reader (Perkin-Elmer) equipped with an automated 1536 disposable tip pipette. The pipette dispenses 3 μL/well of agonist (histamine, at twice the final concentration, where final concentration is a previously determined EC80) in assay medium, with concurrent bioluminescence detection. Agonist activity of test compounds is excluded by separate assays that measure response to test compounds immediately, without added histamine agonist.
CCD image capture on the Lumilux includes a 5 second baseline read prior to agonist addition, and generally a 40 second read per plate after agonist addition. A decrease in bioluminescence signal (measured either as area-under-the-curve, or maximum signal amplitude minus minimum signal amplitude) correlates with receptor antagonism in a dose dependent manner. The negative control is DMSO lacking any test compound. For antagonist assays, the positive controls are diphenhydramine (2-Diphenylmethoxy-N,N-dimethylethylamine, 10 μM final concentration, H1 receptor) or JNJ7777120 (1-[(5-Chloro-1H-indol-2-yl)carbonyl]-4-methyl-piperazine, 10 μM final concentration, H4 receptor). Efficacy is measured as a percentage of positive control activity.

human H4 = target: T2, human H4 (Homo sapiens, UniProt Q9H3N8); experiment: In vitro histamine receptor cell-based assay (aequorin bioluminescence), H4 antagonism; settings: CHO-K1 cells expressing human H4, aequorin and Gα16; histamine at EC80; read-out: H4 Antagonist EC50
T2 construct: host or cells: CHO-K1
How it was run: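 CHO-K1 cells stably expressing human H4, Gα16 and mitochondrial aequorin, loaded with 5 μM coelenterazine-h, preincubated 15 min at room temperature with compound, then challenged with histamine at EC80.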

T2 sequence (Q9H3N8 whole entry): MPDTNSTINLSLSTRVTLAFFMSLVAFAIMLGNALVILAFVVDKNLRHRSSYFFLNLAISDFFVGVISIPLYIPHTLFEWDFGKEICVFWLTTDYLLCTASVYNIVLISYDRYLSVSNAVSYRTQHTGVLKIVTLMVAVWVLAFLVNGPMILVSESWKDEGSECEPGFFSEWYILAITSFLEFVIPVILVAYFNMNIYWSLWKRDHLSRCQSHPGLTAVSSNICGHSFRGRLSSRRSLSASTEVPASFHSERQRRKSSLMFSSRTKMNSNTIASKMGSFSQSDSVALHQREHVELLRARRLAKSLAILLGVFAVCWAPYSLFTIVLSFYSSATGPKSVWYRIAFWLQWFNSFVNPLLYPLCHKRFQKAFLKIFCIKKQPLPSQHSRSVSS
T1 sequence (P35367 whole entry): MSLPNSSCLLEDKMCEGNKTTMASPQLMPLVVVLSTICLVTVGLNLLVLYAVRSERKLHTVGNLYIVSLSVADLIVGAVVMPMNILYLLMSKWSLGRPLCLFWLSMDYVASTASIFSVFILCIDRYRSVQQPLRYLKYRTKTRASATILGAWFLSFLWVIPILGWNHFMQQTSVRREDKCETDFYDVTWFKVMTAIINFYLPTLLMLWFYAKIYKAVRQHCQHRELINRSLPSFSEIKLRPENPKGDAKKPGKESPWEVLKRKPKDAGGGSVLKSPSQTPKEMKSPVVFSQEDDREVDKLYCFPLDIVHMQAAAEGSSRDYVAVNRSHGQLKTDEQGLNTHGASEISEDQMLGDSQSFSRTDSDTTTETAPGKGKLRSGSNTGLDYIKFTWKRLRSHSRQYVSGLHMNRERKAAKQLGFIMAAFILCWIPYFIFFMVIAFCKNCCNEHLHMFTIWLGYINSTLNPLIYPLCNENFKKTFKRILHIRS

| Compound | EC50 (human H1) | EC50 (human H4) |
| --- | --- | --- |
| C[C@@H]1CN(c2nc3ccc(Cl)cc3n3cnnc23)C[C@H](C)N1 [Example 83, 8-chloro-4-((3S,5R)-3,5-dimethylpiperazin-1-yl)-[1,2,4]triazolo[4,3-a]quinoxaline] | > 10 µM | > 10 µM |
| Cc1nc2c3cc(C(F)(F)F)c(Cl)cc3nc(N3CCNCC3)n2n1 [Example 123, 8-chloro-2-methyl-5-(piperazin-1-yl)-9-(trifluoromethyl)-[1,2,4]triazolo[1,5-c]quinazoline] | > 10 µM | < 10 µM |
| Clc1ccc2nc(OCC3CNC3)c3nncn3c2c1 [Example 75, 4-(azetidin-3-ylmethoxy)-8-chloro-[1,2,4]triazolo[4,3-a]quinoxaline] | > 10 µM | > 10 µM |
| CN1CCN(c2nc3ccc(C(F)(F)F)cc3c3conc23)CC1 [Example 218, 4-(4-methylpiperazin-1-yl)-8-(trifluoromethyl)isoxazolo[3,4-c]quinoline] | > 10 µM | < 10 µM |
| CCc1ccc2nc(N3CCN(C)CC3)n3nc(C)nc3c2c1 [Example 139, 9-ethyl-2-methyl-5-(4-methylpiperazin-1-yl)-[1,2,4]triazolo[1,5-c]quinazoline] | > 10 µM | < 10 µM |
| Cc1nc2c(N3CCNCC3)nc3cc(F)c(Cl)cc3c2o1 [Example 217, 8-chloro-7-fluoro-2-methyl-4-(piperazin-1-yl)oxazolo[4,5-c]quinoline] | > 10 µM | < 10 µM |
| Cc1nc2c(N3CCN(C)CC3)nc3cc(F)c(Cl)cc3c2o1 [Example 216, 8-chloro-7-fluoro-2-methyl-4-(4-methylpiperazin-1-yl)oxazolo[4,5-c]quinoline] | > 10 µM | < 10 µM |
| Clc1ccc2nc(N3CCNCC3)c3ncoc3c2c1 [Example 142, 8-Chloro-4-piperazinyl-1,3-oxazolo[4,5-c]quinoline] | > 10 µM | < 10 µM |
| CN1CCN(c2nc3cc(F)c(Cl)cc3n3ccnc23)CC1 [Example 179] | > 10 µM | < 10 µM |
| CN1CCN(c2nc3cc(F)c(Br)cc3n3cnnc23)CC1 [Example 185, 8-bromo-7-fluoro-4-(4-methylpiperazin-1-yl)-[1,2,4]triazolo[4,3-a]quinoxaline] | > 10 µM | < 10 µM |
| Cc1nnc2c(N3CCN(C)CC3)nc3ccc(Cl)cc3n12 [Example 84, 8-chloro-1-methyl-4-(4-methylpiperazin-1-yl)-[1,2,4]triazolo[4,3-a]quinoxaline] | > 10 µM | < 10 µM |
| Clc1ccc2nc(N3CCNCC3)n3nc(Cc4ccccc4)nc3c2c1 [Example 119, 2-Benzyl-9-chloro-5-(piperazin-1-yl)-[1,2,4]triazolo[1,5-c]quinazoline] | > 10 µM | > 10 µM |
| FC(F)(F)c1ccc2nc(N3CCNCC3)n3nc(C(F)(F)F)nc3c2c1 [Example 121, 5-(piperazin-1-yl)-2,9-bis(trifluoromethyl)-[1,2,4]triazolo[1,5-c]quinazoline] | > 10 µM | > 10 µM |
| Cc1nc2c3cc(Cl)c(Cl)cc3nc(N3CCN(C)CC3)n2n1 [Example 93, 8,9-Dichloro-2-methyl-5-(4-methylpiperazin-1-yl)-[1,2,4]triazolo[1,5-c]quinazoline] | > 10 µM | < 10 µM |
| Cc1nc2c3ccc(C(F)(F)F)cc3nc(N3CCNCC3)n2n1 [Example 110, 2-Methyl-5-(piperazin-1-yl)-8-(trifluoromethyl)-[1,2,4]triazolo[1,5-c]quinazoline] | > 10 µM | < 10 µM |
| Fc1cc2c(cc1C(F)(F)F)nc(N1CCNCC1)c1nnnn12 [Example 200, 8-fluoro-4-(piperazin-1-yl)-7-(trifluoromethyl)tetrazolo[1,5-a]quinoxaline] | > 10 µM | < 10 µM |
| CC(C)c1nc2c3cc(Cl)ccc3nc(N3CCNCC3)n2n1 [Example 117, 9-Chloro-2-isopropyl-5-(piperazin-1-yl)-[1,2,4]triazolo[1,5-c]quinazoline] | > 10 µM | > 10 µM |
